Assay results as given in patent US7138242B2, “Olfactory receptor expression libraries and methods of making and using them” (Johns Hopkins University, priority 1998, dated 2006).
“Also recorded” adds a separate entry of the source.

Columns and labels:
[1] = system: mouse olfactory receptor TM II–VII chimeric receptor library (pools of clones); assay: Ca2+ imaging screen of 80 library chimeric receptors (10 pools of eight constructs) against 26 odorants in HEK-293 cells with Gα15,16; type: cell-based; conditions: for intracellular Ca2+ response of a clone pool: odorants applied sequentially
Procedure: HEK-293 cells (obtained from the ATCC) were grown in DMEM supplemented with 10% fetal bovine serum, penicillin (100 U/ml), streptomycin (100 μg/ml) and L-glutamine (2 mM) in 5% CO2. Before transfection, the cells were seeded onto poly-L-lysine-coated 10.5×35×0.17 mm glass coverslips (Bellco) placed in the 60 mm culture dishes. Calcium phosphate-mediated transfections were performed in a 60 mm dish with 3 to 4 μg of receptor construct DNA, 1 μg of pCIS Gα 15 and Gα16 expression vector (Offermanns (1995) supra). 2 μg of pBluescript carrier DNA, and 0.3 μg of pRSV-T antigen expression vector (Gorman (1990) DNA and Protein Eng. Tech. 2:3–9). After 5 to 7 hr incubation, the cells were washed once with PBS containing 0.5 mM EDTA and 10% DMSO, then with PBS before continuing growth in regular media for 40–50 hr.
(§1) These transfected cells were then tested for their ability to functionally respond to ligand-receptor binding. The ligand, the adrenergic agonist isoproterenol, was “bath” applied to the transfected cells and single cell Ca^2+-imaging was performed. Cells were pre-loaded with the Ca^2+-sensitive fluorescent dye FURA-2 AM (Molecular Probes) by bathing in serum-free DMEM containing 4 μM of the membrane permeant chemical for 1 hr at 37° C., then washed with a standard bath solution (130 mM NaCl, 2 mM CaCl2, 5 mM KCl, 10 mM glucose, 10 mM Na.HEPES/pH 7.4 at room temperature). For each experiment, a glass coverslip with FURA-2 loaded HEK 293 cells was introduced into an open-topped, longitudinal microperfusion chamber (300 μl bath volume mounted on a Zeiss Axiovert 135 microscope equipped with an F Fluar 40×/1.30 oil-immersion lens. The cells were superfused with test solutions typically for 30 to 40 seconds (5 ml/application) and washed out with 5 ml of bath solution at the end of each application. Each test solution was freshly diluted and manually applied with a micropipette into the chamber. Because of this manual procedure, there could be several seconds of delay in actual application from electronic tick marks used to define the beginning of application in each graph. At the same time, the solution flow might not be completely laminar. In most cases, the onset of Ca2+ rise in response to a specific solution occurred within 15 seconds of the beginning of solution application, though longer delays were sometimes observed. Acetylcholine was applied at the end of each experiment at 10 μM for 15–20 seconds. Ratiometric Ca^2+ measurements were performed as described by Grynkiewicz (1985) 260:3440–3450, with modifications using the Zeiss/Attofluor-Ratiovision imaging system. At 5-second intervals, the cells were sequentially illuminated for less than 100 ms, first at 340 nm and then at 380 nm. Fluorescence emission at 510 nm was monitored for each excitation wavelength via an intensified CCD camera. Averaged pixel intensities within 40 to 100 regions of interest, corresponding to 40 to 100 individual cells, were digitized and stored on a computer. Attofluor-Ratiovision software (Atto Instruments) was used to determine the Ca^2+-dependent fluorescence signal expressed as the F340/F380 ratio.
The 7-transmembrane domain region TM II–VII expressing vector libraries of the invention were expressed in this cell expression system. Various odorant were screened for their ability to generate a physiologic response in the form of a calcium transient, as above. Eighty plasmid clones arrayed in microtiter plates were pooled into 10 groups of eight constructs each, and co-transfected with Gα15,16 into HEK-293 cells. […]

[2] = system: full-length I-C6 receptor fused to translocation domain (rhodopsin tag); assay: Ca2+ imaging, full-length I-C6 receptor with rhodopsin tag in HEK-293 cells; type: cell-based, mouse
Procedure: PCR products were digested with PstI and BspEI restriction enzymes before size fractionation, purification and ligation into the pCMV-Rho/M4NC vector (see FIG. 1A). The vector ligation products were transformed into E. coli and 480 clones were placed in 96-well plates. […] Pools of cells from a single column of the plates (8 wells) were grown in a 50 ml culture and plasmid DNA prepared. Insert-containing vectors containing: the 5′-untranslated region of the rhodopsin gene, which included its coding region for the initiation methionine and the next 19 residues; joined to a full-length cDNA for a mouse olfactory receptor (M4 or I-C6), under the control of the CMV promoter, were also prepared. The full-length coding region of olfactory receptors mI7 and I-C6 were obtained by screening a mouse (129 SV/J) genomic phage (λFIX-II) library (2×10^6 independent clones) using ^32P-labeled DNA fragments (of TMII through VII sequence) of the respective receptors under stringent conditions (hybridized at 0.2×SSC at 65° C.). DNA fragments encoding the full-length receptors were cloned into pBluescript (Stratagene) and sequenced.
as §1
To determine if these physiologic responses were caused by ligand interaction with a full-length 7-membrane receptor, a genomic clone of the entire I-C6 receptor coding sequence was isolated and used to make a chimeric molecule incorporating the tranlocation domain of the invention (the “rhodopsin tag” sequence). The full-length I-C6 receptor retained the same stereo-selectivity as a chimeric receptor construct whose only I-C6 sequence was the transmembrane domains II through VII (i.e., the odorant/ligand binding domain). […]

[3] = system: I-G7 chimeric olfactory receptor; assay: Ca2+ imaging, individual clone I-G7 in HEK-293 cells with Gα15,16; type: cell-based, mouse; conditions: 10 μM
Procedure: These transfected cells were then tested for their ability to functionally respond to ligand-receptor binding. The ligand, the adrenergic agonist isoproterenol, was “bath” applied to the transfected cells and single cell Ca^2+-imaging was performed. Cells were pre-loaded with the Ca^2+-sensitive fluorescent dye FURA-2 AM (Molecular Probes) by bathing in serum-free DMEM containing 4 μM of the membrane permeant chemical for 1 hr at 37° C., then washed with a standard bath solution (130 mM NaCl, 2 mM CaCl2, 5 mM KCl, 10 mM glucose, 10 mM Na.HEPES/pH 7.4 at room temperature). For each experiment, a glass coverslip with FURA-2 loaded HEK 293 cells was introduced into an open-topped, longitudinal microperfusion chamber (300 μl bath volume mounted on a Zeiss Axiovert 135 microscope equipped with an F Fluar 40×/1.30 oil-immersion lens. The cells were superfused with test solutions typically for 30 to 40 seconds (5 ml/application) and washed out with 5 ml of bath solution at the end of each application. Each test solution was freshly diluted and manually applied with a micropipette into the chamber. Because of this manual procedure, there could be several seconds of delay in actual application from electronic tick marks used to define the beginning of application in each graph. At the same time, the solution flow might not be completely laminar. In most cases, the onset of Ca2+ rise in response to a specific solution occurred within 15 seconds of the beginning of solution application, though longer delays were sometimes observed. Acetylcholine was applied at the end of each experiment at 10 μM for 15–20 seconds. Ratiometric Ca^2+ measurements were performed as described by Grynkiewicz (1985) 260:3440–3450, with modifications using the Zeiss/Attofluor-Ratiovision imaging system. […] Fluorescence emission at 510 nm was monitored for each excitation wavelength via an intensified CCD camera. […] Attofluor-Ratiovision software (Atto Instruments) was used to determine the Ca^2+-dependent fluorescence signal expressed as the F340/F380 ratio. […]

[4] = system: I-D3 chimeric olfactory receptor; assay: Ca2+ imaging, individual clone I-D3 in HEK-293 cells with Gα15,16; type: cell-based, mouse
Procedure: (§2) These transfected cells were then tested for their ability to functionally respond to ligand-receptor binding. The ligand, the adrenergic agonist isoproterenol, was “bath” applied to the transfected cells and single cell Ca^2+-imaging was performed. Cells were pre-loaded with the Ca^2+-sensitive fluorescent dye FURA-2 AM (Molecular Probes) by bathing in serum-free DMEM containing 4 μM of the membrane permeant chemical for 1 hr at 37° C., then washed with a standard bath solution (130 mM NaCl, 2 mM CaCl2, 5 mM KCl, 10 mM glucose, 10 mM Na.HEPES/pH 7.4 at room temperature). […] Fluorescence emission at 510 nm was monitored for each excitation wavelength via an intensified CCD camera. […] Attofluor-Ratiovision software (Atto Instruments) was used to determine the Ca^2+-dependent fluorescence signal expressed as the F340/F380 ratio. […]

[5] = system: I-C6 chimeric olfactory receptor (TM II–VII); assay: Ca2+ imaging, individual clone I-C6 (TM II–VII chimeric) in HEK-293 cells with Gα15,16; type: cell-based, mouse; conditions: (−) vs (+) isomer
Procedure: as §2

[6] = control experiments lacking Gα15,16

SMILES	intracellular Ca2+ response of a clone pool ([1]; 10 μM)	qualitative rank order of potency for binding and activating the I-C6 receptor [2]	intracellular Ca2+ response ([2]; 30 μM)	further results
CC(C)=CCCC(C)CC=O (single isomer, unassigned; (+)) [(+) citronellal]	absence of response	(−)citronellal>(+)citronellal, citronellyl bromide>28 other odorants	elicit a response	intracellular Ca2+ response ([2]; 100 μM): elicit a response
C=C(C)C1CC=C(C)CC1 (single isomer, unassigned; (+)) [(+) limonene]	transient increases in Ca^2+			intracellular Ca2+ response [3]: responded
C=C(C)C1CC=C(C)C(=O)C1 (single isomer, unassigned; (-)) [(−) carvone]	transient increases in Ca^2+			Ca2+ response of a clone pool to a second application ([1]; 10 μM, second application): second response to (−) carvone could still be elicited; intracellular Ca2+ response [4]: responsive
CC(C)=CCCC(C)CC=O (single isomer, unassigned; (-)) [(−) citronellal]	transient increases in Ca^2+	(−)citronellal>(+)citronellal, citronellyl bromide>28 other odorants		stereo-selectivity of the Ca2+ response [5]: selective; also recorded: preferred; response of a library receptor ([1]; micromolar concentrations, three receptors, respectively): responded; intracellular Ca2+ response ([2]; 1 μM): responding; stereo-selectivity of the Ca2+ response ([2]; (−) vs (+) isomer): preferred; intracellular Ca2+ response after a prior positive response ([2]; applied immediately after 30 μM (+) citronellal (desensitization)): lack of response; intracellular Ca2+ response [2, 6]: no response
CC(C)=CCCC(C)CC(=O)O (single isomer, unassigned; (-)) [(−) citronellic acid]			only 30 μM (−) citronellyl bromide elicited a small response	
CC(C)=CCCC(C)CCO (single isomer, unassigned; (-)) [(−) citronellol]			only 30 μM (−) citronellyl bromide elicited a small response	
CC(C)=CCCC(C)CCBr (single isomer, unassigned; (-)) [(−) citronellyl bromide]		(−)citronellal>(+)citronellal, citronellyl bromide>28 other odorants	small response	intracellular Ca2+ response [2, 6]: no response
